# In patent US6844294B2, “Synergistic herbicidal compositions comprising herbicides from the benzoylcyclohexanedione group for use in rice crops” (Aventis CropScience GmbH, priority 2001, dated 2005):
# What was measured:
# Type in all cases: in vivo
# SAGPY Sagittaria pygmaea = experiment: Herbicidal action on SAGPY, visual scoring on a percentage scale vs untreated control
# From the text: (§1) Seeds or root segments of monocotyledonous and dicotyledonous harmful plants are placed in sandy loam in pots and covered with soil. In the case of spray application, the compositions formulated as concentrated aqueous solutions, wettable powders or emulsion concentrates, are then applied to the surface of the covering soil as aqueous solution, suspension or emulsion, respectively, at an application rate of 600 to 800 l of water per ha (converted) in a variety of dosages. Immediately to a few days after the application, the test containers are flooded with water up to a depth of 30 mm above the soil surface. In the case of submerged application, in contrast, the soil in the closed test container is already covered with paddy water up to a depth of 30 mm at the time of application. Here, the formulated active ingredients are added directly to the paddy water, for example in the form of granules. After the treatment, the pots are placed in a greenhouse and kept under good growth conditions for the weeds. […] When using suitable low dosages, the values observed in the experiments show an effect of the combinations which exceed the expected values calculated using Colby's formula.
# (§2) The herbicidal efficacy of the active ingredients or active ingredient mixtures was scored visually by comparing the treated variants with untreated control variants. The damage and development of all aerial plant parts was recorded. […]
# Seeds or root segments of monocotyledonous and dicotyledonous weeds are placed in sandy loam in pots, covered with soil and grown in the greenhouse under good growth conditions (temperature, atmospheric humidity, water supply). […] After the experimental plants have remained in the greenhouse under optimal growth conditions for a further 3 to 4 weeks, the effect of the preparations is scored visually in comparison with untreated controls. […] When using suitable low dosages, the values observed in the experiments show an effect of the combinations which exceed the expected values calculated using Colby's formula. […]
# SCPJU Scirpus juncoides = experiment: Herbicidal action on SCPJU, visual scoring on a percentage scale vs untreated control
# From the text: (§3) Seeds or root segments of monocotyledonous and dicotyledonous harmful plants are placed in sandy loam in pots and covered with soil. In the case of spray application, the compositions formulated as concentrated aqueous solutions, wettable powders or emulsion concentrates, are then applied to the surface of the covering soil as aqueous solution, suspension or emulsion, respectively, at an application rate of 600 to 800 l of water per ha (converted) in a variety of dosages. Immediately to a few days after the application, the test containers are flooded with water up to a depth of 30 mm above the soil surface. In the case of submerged application, in contrast, the soil in the closed test container is already covered with paddy water up to a depth of 30 mm at the time of application. Here, the formulated active ingredients are added directly to the paddy water, for example in the form of granules. After the treatment, the pots are placed in a greenhouse and kept under good growth conditions for the weeds. Visual scoring of the plant damage or the adverse effect on the emergence is carried out after the test plants have emerged after an experimental period of 3 to 4 weeks in comparison with untreated controls. […] Frequently, effects of the combinations according to the invention are observed which exceed the formal total of the effects when the herbicides are applied individually. When using suitable low dosages, the values observed in the experiments show an effect of the combinations which exceed the expected values calculated using Colby's formula.
# (§4) The herbicidal efficacy of the active ingredients or active ingredient mixtures was scored visually by comparing the treated variants with untreated control variants. The damage and development of all aerial plant parts was recorded. Scoring was done on a percentage scale (100% action=all plants dead; 50% action=50% of the plants and green plant parts dead; 0% action=no discernible action=like untreated control plot).
# (§5) Seeds or root segments of monocotyledonous and dicotyledonous weeds are placed in sandy loam in pots, covered with soil and grown in the greenhouse under good growth conditions (temperature, atmospheric humidity, water supply). Approximately three weeks after planting, the experimental plants are treated with the compositions according to the invention. In the case of spray application, the compositions according to the invention, which are formulated as wettable powders or emulsion concentrates, are sprayed onto the green plant parts in various dosages with an application rate of 600 to 800 l of water per ha (converted). Immediately to a few days after the application, the test containers are flooded with water up to a depth of 30 mm above the soil surface. In the case of submerged application, in contrast, the soil in the closed test container is already covered with paddy water up to a depth of 30 mm at the time of application. Here, the formulated active ingredients are added directly to the paddy water. After the experimental plants have remained in the greenhouse under optimal growth conditions for a further 3 to 4 weeks, the effect of the preparations is scored visually in comparison with untreated controls. The compositions according to the invention also have an outstanding herbicidal action against a broad spectrum of economically important grass weeds and broad-leaved weeds when applied post-emergence. Frequently, effects of the combinations according to the invention are observed which exceed the formal total of the effects when the herbicides are applied individually. When using suitable low dosages, the values observed in the experiments show an effect of the combinations which exceed the expected values calculated using Colby's formula.
# Crop plants were grown in the open on plots under natural field conditions, seeds or root segments of typical harmful plants having been planted and the natural weed flora being exploited. […]
# CYPSE = experiment: Herbicidal action on CYPSE, visual scoring on a percentage scale vs untreated control
# SEBEX Sesbania exaltata = experiment: Herbicidal action on SEBEX, visual scoring on a percentage scale vs untreated control
# From the text: as §3, §4
# as §5, with “The compositions according to the invention also have an outstanding herbicidal action against a broad spectrum of economically important grass weeds and broad-leaved weeds when applied post-emergence. Frequently, effects of the combinations according to the invention are observed which exceed the formal total of the effects when the herbicides are applied individually.” left out, “formula. […]” for “formula.”
# MOOVA = experiment: Herbicidal action on MOOVA, visual scoring on a percentage scale vs untreated control
# From the text: as §1, with “granules.” for “granules. After the treatment, the pots are placed in a greenhouse and kept under good growth conditions for the weeds.”
# as §2
# PHBPU = experiment: Herbicidal action on PHBPU, visual scoring on a percentage scale vs untreated control
# From the text: as §3, §4
# as §5, with “The compositions according to the invention also have an outstanding herbicidal action against a broad spectrum of economically important grass weeds and broad-leaved weeds when applied post-emergence. Frequently, effects of the combinations according to the invention are observed which exceed the formal total of the effects when the herbicides are applied individually.” left out, “formula. […]” for “formula.”
# CHEAL = experiment: Herbicidal action on CHEAL, visual scoring on a percentage scale vs untreated control
# From the text: as §1, with “granules.” for “granules. After the treatment, the pots are placed in a greenhouse and kept under good growth conditions for the weeds.”
# as §2
# ECHOR = experiment: Herbicidal action on ECHOR, visual scoring on a percentage scale vs untreated control; settings: Example B.XII, dosage 25 g ai/ha
# From the text: as §1, with “granules.” for “granules. After the treatment, the pots are placed in a greenhouse and kept under good growth conditions for the weeds.”
# as §2
# ECHCG = experiment: Herbicidal action on ECHCG, visual scoring on a percentage scale vs untreated control
# From the text: as §1, with “granules.” for “granules. After the treatment, the pots are placed in a greenhouse and kept under good growth conditions for the weeds.”
# as §2
# [1] = Example B.IX, dosage 187 g ai/ha
# [2] = Example B.X, dosage 1.8 g ai/ha
# [3] = Example B.XIII, dosage 22 g ai/ha
# [4] = Example B.IV, dosage 20 g ai/ha
# [5] = Example B.XV, dosage 4.3 g ai/ha
smiles,measurement,setting,value
"CCN(CC)C(=O)SCc1ccc(Cl)cc1 [Compound B1.2, thiobencarb]",found (herbicidal action),SAGPY Sagittaria pygmaea; [1],0%
same,found (herbicidal action),SCPJU Scirpus juncoides; [1],20%
"COc1cc(OC)nc(NC(=O)NS(=O)(=O)Cc2ccccc2C(=O)O)n1 [Compound B2.1, bensulfuron]",found (herbicidal action),"CYPSE; Example B.I, dosage 10 g ai/ha",68%
same,found (herbicidal action),"SEBEX Sesbania exaltata; Example B.I, dosage 20 g ai/ha",45%
"COc1cc(OC)nc(Oc2cccc(Oc3nc(OC)cc(OC)n3)c2C(=O)O)n1 [Compound B2.2, bispyribac-sodium]",found (herbicidal action),SCPJU Scirpus juncoides; [2],0%
same,found (herbicidal action),MOOVA; [2],0%
"COC(=O)c1c(Cl)nn(C)c1S(=O)(=O)NC(=O)Nc1nc(OC)cc(OC)n1 [Compound B2.5, halosulfuron-methyl]",found (herbicidal action),"SAGPY Sagittaria pygmaea; Example B.XI, dosage 7.5 g ai/ha",0%
same,found (herbicidal action),"SCPJU Scirpus juncoides; Example B.XI, dosage 15 g ai/ha",0%
"CCc1cnc(C2=NC(C)(C(C)C)C(=O)N2)c(C(=O)O)c1 (stereo not shown) [Compound B2.9, imazethapyr]",found (herbicidal action),"PHBPU; Example B.II, dosage 5 g ai/ha",5%
same,found (herbicidal action),"CHEAL; Example B.II, dosage 10 g ai/ha",5%
"COc1cc(OC)n2nc(S(=O)(=O)Nc3c(Cl)ccc(C)c3Cl)nc2n1 [Compound B2.13, metosulam]",found (herbicidal action),"PHBPU; B.III, dosage 2.5 g ai/ha",85%
same,found (herbicidal action),"SEBEX Sesbania exaltata; B.III, dosage 2.5 g ai/ha",30%
"CC1(C)CON(Cc2ccccc2Cl)C1=O [Compound B3.1, clomazone]",found (herbicidal action),"CYPSE; Example B.XII, dosage 50 g ai/ha",0%
same,found (herbicidal action),ECHOR,30%
"CCCCOC(=O)[C@@H](C)Oc1ccc(Oc2ccc(C#N)cc2F)cc1 [Compound B4.1, cyhalofop-butyl]",found (herbicidal action),CYPSE; [3],0%
same,found (herbicidal action),SCPJU Scirpus juncoides; [3],0%
"CCOC(=O)C(C)Oc1ccc(Oc2nc3ccc(Cl)cc3o2)cc1 (stereo not shown) [Compound B4.2, fenoxaprop-ethyl]",found (herbicidal action),PHBPU; [4],0%
same,found (herbicidal action),SEBEX Sesbania exaltata; [4],0%
"CN(C(=O)COc1nc2ccccc2s1)c1ccccc1 [Compound B5.1, mefenacet]",found (herbicidal action),"SAGPY Sagittaria pygmaea; Example B.XIV, dosage 63 g ai/ha",0%
same,found (herbicidal action),"SCPJU Scirpus juncoides; Example B.XIV, dosage 125 g ai/ha",0%
"CC1=C(c2ccccc2)C(=O)N(C(C)(C)c2cc(Cl)cc(Cl)c2)CO1 [Compound B5.2, oxaziclomefone]",found (herbicidal action),CYPSE; [5],0%
same,found (herbicidal action),SCPJU Scirpus juncoides; [5],0%
"CCC(CC)Nc1c([N+](=O)[O-])cc(C)c(C)c1[N+](=O)[O-] [Compound B7.1, pendimethalin]",found (herbicidal action),"PHBPU; Example B.V, dosage 100 g ai/ha",75%
same,found (herbicidal action),"ECHCG; Example B.V, dosage 200 g ai/ha",78%
"CCC(=O)Nc1ccc(Cl)c(Cl)c1 [Compound B8.1, propanil]",found (herbicidal action),"SCPJU Scirpus juncoides; Example B.XVI, dosage 375 g ai/ha",0%
same,found (herbicidal action),"MOOVA; Example B.XVI, dosage 187 g ai/ha",0%
"O=C(O)c1c(Cl)ccc2cc(Cl)cnc12 [Compound B9.1, quinclorac]",found (herbicidal action),"PHBPU; Example B.VI, dosage 10 g ai/ha",78%
same,found (herbicidal action),"SEBEX Sesbania exaltata; Example B.VI, dosage 5 g ai/ha",0%
"CP(=O)(O)CCC(N)C(=O)O (stereo not shown) [Compound B10.1, glufosinate]",found (herbicidal action),"ECHCG; Example B.VII, dosage 50 g ai/ha",0%
same,found (herbicidal action),"SEBEX Sesbania exaltata; Example B.VII, dosage 100 g ai/ha",5%
"O=C(O)CNCP(=O)(O)O [Compound B11.1, glyphosate]",found (herbicidal action),"CHEAL; Example B.VIII, dosage 100 g ai/ha",0%
